Structures are written as SMILES.

The target of the assay is T1, human B1R (Homo sapiens, UniProt P46663).
T1 construct: expressed in transfected cells; host or cells: CHO K1 cells (Chinese Hamster Ovary), stably transfected
T1 sequence (P46663 1-353): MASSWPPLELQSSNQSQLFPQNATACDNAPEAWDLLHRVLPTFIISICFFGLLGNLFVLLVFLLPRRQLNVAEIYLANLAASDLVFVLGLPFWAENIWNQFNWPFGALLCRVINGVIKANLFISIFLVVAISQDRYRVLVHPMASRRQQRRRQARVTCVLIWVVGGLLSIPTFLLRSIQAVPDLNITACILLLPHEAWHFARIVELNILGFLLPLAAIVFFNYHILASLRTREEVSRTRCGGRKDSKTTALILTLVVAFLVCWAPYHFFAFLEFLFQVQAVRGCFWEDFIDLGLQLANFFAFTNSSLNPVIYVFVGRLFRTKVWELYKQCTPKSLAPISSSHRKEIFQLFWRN
Nature of the assay: Functional assay at bradykinin receptor 1 (B1R): Ca2+ fluorescence (Fluo-4) in FLIPR/Novostar, antagonist mode. The format is cell-based. The note with it: test substance 10 µM; CHO K1 cells stably transfected with human B1R gene (hB1R-Zellen); agonist Lys-Des-Arg9-Bradykinin at EC80; % inhibition relative to maximal achievable inhibition; read-out: % Inhibierung (human B1R) bei 10 µM. A digest of the protocol: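 Antagonism read as suppression of the Ca2+ rise in Fluo-4-loaded, hB1R-transfected CHO K1 cells when Lys-Des-Arg9-bradykinin (EC80) follows a 6–20 min compound preincubation. Maximal fluorescence counts, measured on FLIPR or Novostar, yield % inhibition relative to maximum; IC50 values come from concentration series run in duplicate or triplicate.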
For the molecule `COc1cc(C)c(S(=O)(=O)Cc2noc(C(=O)N3CCC4(CC3)CCN(c3ccncc3)CC4)n2)c(C)c1` [SC-10, [3-[[(4-Methoxy-2,6-dimethyl-phenyl)sulfonyl]-methyl]-[1,2,4]oxadiazol-5-yl]-(9-pyridin-4-yl-3,9-diazaspiro[5.5]undecan-3-yl)-methanon], the inhibition at 10 µM stood at 100%.

As to `COc1cc(C)c(S(=O)(=O)Cc2cc(C)n(CC(=O)NC3CCNCC3(C)C)n2)c(C)c1` (stereo not drawn) [CC-171, N-(3,3-Dimethyl-piperidin-4-yl)-2-[3-[[(4-methoxy-2,6-dimethyl-phenyl)sulfonyl]-methyl]-5-methyl-1 H-pyrazol-1-yl]-acetamid], the inhibition at 10 µM is 71%.

For `COc1cc(C)c(S(=O)(=O)Cc2nc(CC(=O)NC3CCNCC3(C)C)no2)c(C)c1` (stereo not drawn) [CC-52, N-(3,3-Dimethyl-piperidin-4-yl)-2-[5-[[(4-methoxy-2,6-dimethyl-phenyl)sulfonyl]-methyl]-[1,2,4]oxa-diazol-3-yl]-acetamid], the inhibition at 10 µM was determined as 100%.

`COc1cc(C)c(S(=O)(=O)Cc2cn(CC(=O)NC3CCC(c4ccncc4)CC3(C)C)nn2)c(C)c1` (stereo not drawn) [CC-178, N-(2,2-Dimethyl-4-pyridin-4-yl-cyclohexyl)-2-[4-[[(4-methoxy-2,6-dimethyl-phenyl)sulfonyl]-methyl]-1 H-[1,2,3]triazol-1-yl]-acetamid]: the inhibition at 10 µM stood at 100%.

On to `COc1cc(C)c(S(=O)(=O)Cc2noc(CC(=O)N3CCN(c4ccncc4)CC3)n2)c(C)c1` [CC-133, 2-[3-[[(4-Methoxy-2,6-dimethyl-phenyl)sulfonyl]-methyl]-[1,2,4]oxadiazol-5-yl]-1-(4-pyridin-4-yl-piperazin-1-yl)-ethanon], for which the inhibition at 10 µM came out at 100%.

`COc1cc(C)c(S(=O)(=O)Cc2noc(CC(=O)NC3CCC(N4CCN(C)CC4)CC3(C)C)n2)c(C)c1` (stereo not drawn) [SC-13, N-[2,2-Dimethyl-4-(4-methyl-piperazin-1-yl)-cyclohexyl]-2-[3-[[(4-methoxy-2,6-dimethyl-phenyl)sulfonyl]-methyl]-[1,2,4]oxadiazol-5-yl]-acetamid]: the inhibition at 10 µM was 100%.

Regarding `Cc1cccc(Cl)c1S(=O)(=O)Cc1noc(C(=O)N(C)CCC2CCN(c3ccncc3)CC2)n1` [CC-14, 3-[[(2-Chlor-6-methyl-phenyl)sulfonyl]-methyl]-N-methyl-N-[2-(1-pyridin-4-yl-piperidin-4-yl)-ethyl]-[1,2,4]oxadiazol-5-carbonsäure amid], the inhibition at 10 µM amounted to 100%.

For `CN(C)C1CCC(NC(=O)Cc2nc(CS(=O)(=O)c3cccc(Cl)c3Cl)no2)CC1` (stereo not drawn) [CC-59, 2-[3-[[(2,3-Dichlor-phenyl)sulfonyl]-methyl]-[1,2,4]oxadiazol-5-yl]-N-(4-dimethylamino-cyclohexyl)-acetamid], the inhibition at 10 µM amounted to 63%.

For `Cc1cccc(Cl)c1S(=O)(=O)Cc1noc(C(=O)NC2CCC(N(C)C)CC2)n1` (stereo not drawn) [CC-11, 3-[[(2-Chlor-6-methyl-phenyl)sulfonyl]-methyl]-N-(4-dimethylamino-cyclohexyl)-[1,2,4]oxadiazol-5-carbonsäure amid], the inhibition at 10 µM is 95%.

Take `COc1cc(C)c(S(=O)(=O)Cc2cc(C)n(CC(=O)NC3CCC(N4CCN(C)CC4)CC3(C)C)n2)c(C)c1` (stereo not drawn) [CC-163, N-[2,2-Dimethyl-4-(4-methyl-piperazin-1-yl)-cyclohexyl]-2-[3-[[(4-methoxy-2,6-dimethyl-phenyl)sulfonyl]-methyl]-5-methyl-1H-pyrazol-1-yl]-acetamid]: the inhibition at 10 µM worked out at 99%.

As to `COc1cc(C)c(S(=O)(=O)Cc2nc(CC(=O)NC3CCN(C(C)=O)CC3(C)C)no2)c(C)c1` (stereo not drawn) [CC-30, N-(1-Acetyl-3,3-dimethyl-piperidin-4-yl)-2-[5-[[(4-methoxy-2,6-dimethyl-phenyl)sulfonyl]-methyl]-[1,2,4]oxadiazol-3-yl]-acetamid], the inhibition at 10 µM was 90%.

For the molecule `Cc1cc(S(=O)(=O)Cc2noc(C(=O)NC3CCC(N(C)C)CC3)n2)c(C)cc1Cl` (stereo not drawn) [CC-13, 3-[[(4-Chlor-2,5-dimethyl-phenyl)sulfonyl]-methyl]-N-(4-dimethylamino-cyclohexyl)-[1,2,4]oxa-diazol-5-carbonsäure amid], the inhibition at 10 µM stood at 99%.

For `Cc1cc(S(=O)(=O)Cc2noc(CC(=O)NC3CCC(N(C)C)CC3)n2)c(C)cc1Cl` (stereo not drawn) [CC-81, 2-[3-[[(4-Chlor-2,5-dimethyl-phenyl)sulfonyl]-methyl]-[1,2,4]oxadiazol-5-yl]-N-(4-dimethylamino-cyclohexyl)-acetamid], the inhibition at 10 µM came out at 79%.

`COc1cc(C)c(S(=O)(=O)Cc2noc(C(=O)N3CCC(Cc4ccncc4)CC3)n2)c(C)c1` [SC-08, [3-[[(4-Methoxy-2,6-dimethyl-phenyl)sulfonyl]-methyl]-[1,2,4]oxadiazol-5-yl]-[4-(pyridin-4-yl-methyl)-piperidin-1-yl]-methanon]: the inhibition at 10 µM came to 99%.

For `COc1cc(C)c(S(=O)(=O)Cc2noc(CC(=O)N(C)C3CCN(Cc4ccc(OC)nc4)CC3)n2)c(C)c1` [SC-55, 2-[3-[[(4-Methoxy-2,6-dimethyl-phenyl)sulfonyl]-methyl]-[1,2,4]oxadiazol-5-yl]-N-[1-[(6-methoxy-pyridin-3-yl)-methyl]-piperidin-4-yl]-N-methyl-acetamid], the inhibition at 10 µM worked out at 100%.

Regarding `COc1cc(C)c(S(=O)(=O)Cc2cn(CC(=O)NC3CCN(C(C)=O)CC3(C)C)nn2)c(C)c1` (stereo not drawn) [CC-161, N-(1-Acetyl-3,3-dimethyl-piperidin-4-yl)-2-[4-[[(4-methoxy-2,6-dimethyl-phenyl)sulfonyl]-methyl]-1H-[1,2,3]triazol-1-yl]-acetamid], the inhibition at 10 µM was 92%.

`Cc1cc(S(=O)(=O)Cc2noc(CC(=O)NC3CCN(C)CC3(C)C)n2)c(C)cc1Cl` (stereo not drawn) [CC-105, 2-[3-[[(4-Chlor-2,5-dimethyl-phenyl)sulfonyl]-methyl]-[1,2,4]oxadiazol-5-yl]-N-(1,3,3-trimethyl-piperidin-4-yl)-acetamid]: the inhibition at 10 µM was found to be 88%.

On to `COc1cc(C)c(S(=O)(=O)Cc2noc(C(=O)N3CCC(Oc4ccncc4)C3)n2)c(C)c1` (stereo not drawn) [SC-03, [3-[[(4-Methoxy-2,6-dimethyl-phenyl)sulfonyl]-methyl]-[1,2,4]oxadiazol-5-yl]-(3-pyridin-4-yloxy-pyrrolidin-1-yl)-methanon], for which the inhibition at 10 µM stood at 98%.

Consider `COc1cc(C)c(S(=O)(=O)Cc2noc(CC(=O)NC3CCC(c4ccncc4)CC3(C)C)n2)c(C)c1` (stereo not drawn) [SC-32, N-(2,2-Dimethyl-4-pyridin-4-yl-cyclohexyl)-2-[3-[[(4-methoxy-2,6-dimethyl-phenyl)sulfonyl]-methyl]-[1,2,4]oxadiazol-5-yl]-acetamid], for which the inhibition at 10 µM came to 98%.

As to `COc1cc(C)c(S(=O)(=O)Cc2noc(C(=O)NC3CCN(c4ccc(C(F)(F)F)cn4)CC3)n2)c(C)c1` [CC-02, 3-[[(4-Methoxy-2,6-dimethyl-phenyl)sulfonyl]-methyl]-N-[1-[5-(trifluormethyl)-pyridin-2-yl]-piperidin-4-yl]-[1,2,4]oxadiazol-5-carbonsäure amid], the inhibition at 10 µM turned out to be 86%.

In the case of `COc1cc(C)c(S(=O)(=O)Cc2noc(C(=O)N3CCC(N4CCN(C)CC4)CC3)n2)c(C)c1` [CC-129, [3-[[(4-Methoxy-2,6-dimethyl-phenyl)sulfonyl]-methyl]-[1,2,4]oxadiazol-5-yl]-[4-(4-methyl-piperazin-1-yl)-piperidin-1-yl]-methanon], the inhibition at 10 µM was 100%.

These data come from patent EP2857388A1, “Azoles containing sulfone” (Grünenthal GmbH, priority 2013, dated 2015).
